Here are results for three compounds from US20050107289A1, “Anti-microbial peptides and compositions” (priority 2001, published 2005).

Data set [1] deals with S. aureus (MRSA) ATCC 33591. The class given is cell-based, Staphylococcus aureus. As to conditions: for MRSA MIC / S. aureus (MRSA) MIC: ATCC 33591; for MRSA (in vitro activity): Table 9. The method in brief:
(§1)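 MICs come from NCCLS-style (M7-A4) dilution testing, mostly microdilution, with an inoculum near 2.5×10^5 cfu/ml from 4000-fold-diluted overnight cultures. Peptide series were 2-fold steps spanning roughly 400–2 μg/ml, prepared in 9% aqueous sucrose with 5% DMSO.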

For the next data set, the system named is E. coli JM109(DE3). Format: cell-based, Escherichia coli. As to conditions: JM109. The method in brief: as §1
The test system of data set [2] is murine red blood cells. In words: Red blood cell hemolysis. The class given is cell-based, mouse. Also on record: RBC Hemolysis (HD50): unit not given here. Put shortly:
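Hemolysis read as A560 of supernatant, scaled between saline (0%) and 1% Triton X-100 (100%) controls; peptides were serially diluted onto 5% murine red cells in saline plus 10% FBS and incubated 30 min at 37° C.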

For data set [3], the system named is vancomycin-resistant Enterococus faecalis (VRE)(ATCC 51575). Format: cell-based, Enterococcus faecalis. Also on record: key to VRE (in vitro activity): peptide concentration in μg/ml (broth dilution assay). To be noted: for VRE MIC: ATCC 51575; for VRE (in vitro activity): Table 9. Put shortly:
as §1

For data set [4], the system named is Bacillus cereus ATCC 11778. Format: cell-based. Put shortly:
as §1

Data set [5] deals with Streptococcus pneumoniae (ATCC 6301). The class given is cell-based. Put shortly: as §1
For data set [6], the system named is Bacillus subtilis ATCC 43223. In words: MIC, Bacillus subtilis. Format: cell-based. To be noted: data from MDS Panlabs Pharmacology Services. Here is the method: (§2) The antimicrobial activity of the peptides was determined using a broth dilution assay essentially as descried in the guidelines of the National Committee for […] (NCCLS) [National Committee for Clinical Laboratory Standards. Methods for dilution antimicrobial susceptibility tests for bacteria that grow aerobically. Fourth edition. Approved Standard (1997). Document M7-A4. […] The microdilution method has the advantages of requiring less amount of peptide for each assay and the possibility of multiple simultaneous inoculations and was used in most studies. Several of the strains of bacteria tested are further described in Table 3.

Data set [7] relates to Staphylococcus aureus ATCC25923. As to the kind of experiment: MIC, Staphylococcus aureus ATCC25923. Format: cell-based. To be noted: data from MDS Panlabs Pharmacology Services. As to the method: as §2
Data set [8] relates to Listeria monocytogenes ATCC19115. In words: MIC, Listeria monocytogenes. Format: cell-based. As to the method: as §2
(§3) Preparation of peptide solutions. Stock peptide solutions were prepared in 5% DMSO in aq. sucrose (9%). Determination of peptide concentrations was done by quantitative HPLC analysis using known concentrations of internal standards and/or by measuring UV absorption of tryptophane-containing peptide solutions in H2O (λ=280 εTrp: 5690). Serial 2-fold dilutions were made in the above DMSO/aq. sucrose (9%) mixture with concentrations ranging approximately 400-2 μg/ml and aliquots were dispensed in test tubes (100 μl) for the macrodilution test or in microtiter plates (20 μl) for the microdilution assays.
(§4) Inoculum preparation. […]

Data set [9] has as its system Enterococcus faecalis vancomycin-resistant clinical isolate. Format: cell-based. As to conditions: data from MDS Panlabs. As to the method:
as §2

Data set [10] concerns Streptococcus pneumoniea erythromycin- and ampicillin-resistant clinical isolate. The class given is cell-based, Streptococcus pneumoniae. To be noted: data from MDS Panlabs. As to the method:
as §2

For data set [11], the system named is Salmonella typhimurium ATCC 14028. As to the kind of experiment: MIC, Salmonella typhimurium. The class given is cell-based. As to the method: as §2, §3, §4
Data set [12] in a line: Cytotoxicity to M21 melanoma cells. Format: cell-based. As to conditions: human, read-out: M21 (melanoma) LD50.
Data set [13] deals with S. aureus (MRSA) (ATCC No. 33591). As to the kind of experiment: Time-killing curve, S. aureus MRSA ATCC 33591. The class given is cell-based, Staphylococcus aureus. To be noted: FIG. 8a; at MIC concentrations. Here is the method:
(§5) The speed at which several of the cyclic peptides of the invention kill E. coli JM 109 (DE3), Enterococcus faecium SP 180 and S. aureus (MRSA) (ATCC No. 33591 and 33592) was further tested at room temperature and/or at 37° C. A lower temperature tends to enrich the bacterial cultures for mature bacteria because the bacteria are not growing quickly. […] The presence or absence of immature bacteria in the culture may influence the rate at which the bacteria are killed, because immature bacteria tend to be more susceptible to many forms of antibiotics.
To generate the data shown in FIG. 8a, the log of the number of colony forming units (cfu) per ml of culture was determined as a function of time after treatment of S. aureus (MRSA) (ATCC No. 33591) with cyclo[KHLWLW] (closed circles), cyclo[KRKWLWLW] (closed triangles), and cyclo[KQRWLWLW] (open squares) at MIC concentrations. […] The reduction in cfu count was greater than 3 log units. Cyclic peptide cyclo[KHLWLW] killed effectively all S. aureus (MRSA) within about 60 minutes.

The subject of the next data set is E. coli JM109 (DE3). As to the kind of experiment: Time-killing curve, E. coli. To be noted: FIG. 8b; at MIC concentrations. The class given is cell-based, Escherichia coli. As to the method:
as §5
In FIG. 8b, the log of the number of E. coli colony forming units (cfu) per ml of culture is plotted versus time treated with cyclo[KRKWLWLW] (closed triangles), cyclo[KQRWLWLW] (closed circles), cyclo[KHLWLW] (closed squares), and cyclo[KKWLW] (open squares) at MIC concentrations. […] Cyclic peptide cyclo[KHKLWLW] kills effectively all E. coli within about 90 minutes. Cyclic peptides cyclo[KRKWLWLW] and cyclo[KKWLW] kill effectively all of the E. coli within about 130 minutes. […] Nonetheless, these cyclic peptides kill both types of bacteria very quickly.

Data set [14] deals with murine red blood cells. As to conditions: cited from earlier work.
The mark [15] stands for this setting: media a: anti-microbial media-3 (AM-3).

In brackets after ≈: the same amount, converted by molar mass. Read-outs that look alike come from different tables or passages of the source. Marks after values point to notes of the source that are not given here. Non-standard residues stand in square brackets, D forms with d. Residues, ends and D or L forms follow the SMILES beside them.

Consider `CC(C)C[C@@H]1NC(=O)[C@@H](Cc2c[nH]c3ccccc23)NC(=O)[C@H](CCCNC(=N)N)NC(=O)[C@@H](CCC(N)=O)NC(=O)[C@H](CCCCN)NC(=O)[C@@H](Cc2c[nH]c3ccccc23)NC(=O)[C@H](CC(C)C)NC(=O)[C@@H](Cc2c[nH]c3ccccc23)NC1=O` [SEQ ID NO:9, cyclo-[Lys-D-Gln-Arg-D-Trp-Leu-D-Trp-Leu-D-Trp]] (cyclo(K[dQ]R[dW]L[dW]L[dW])), for which, in data set [1], the MRSA MIC came to 12 µg/mL and the “S. aureus (MRSA) MIC” value was 8 µg/mL. Besides, in data set [1] (setting [15]), the “MRSA (in vitro activity)” value is 12. In addition, in the data set with E. coli JM109(DE3), the “E. coli MIC” value turned out to be 80 µg/mL. For the same compound, in the data set with murine red blood cells [2], the “RBC Hemolysis (HD50)” value was found to be 40 and the “Red blood cell (mouse) HD50” value was 45^j μg/ml. In data set [3], the VRE MIC was found to be 12 µg/mL. The “VRE (in vitro activity)” value in data set [3] (media a: AM-3) is reported as 12. Further, in data set [4], the B. cerius MIC was determined as 3 µg/mL and the “MIC Bacillus cereus” value was found to be 2 µg/mL (≈ 1.67 µM). In data set [5], this compound came in with a S. pneum. MIC of 4 µg/mL. In addition, the “MIC Bacillus subtilis” value in [6] is recorded as 3^b μg/ml. In data set [7], the “MIC Staphylococcus aureus” value is 3^b μg/ml. The “MIC Listeria monocytogenes” value in data set [8] was determined as 20 µg/mL (≈ 16.7 µM). Besides, in [9], the “MIC Enterococcus faecalis” value was 10^b μg/ml. Also, the “MIC Streptococcus pneumoniea” value in data set [10] is on record as 10^b μg/ml. For the same compound, in [11], the “MIC Salmonella typhimurium” value was more than 70 µg/mL. In addition, the CC50 in [12] was more than 75 µg/mL.

Consider `CC(C)C[C@H]1NC(=O)[C@H](Cc2c[nH]cn2)NC(=O)[C@@H](CCCCN)NC(=O)[C@H](Cc2c[nH]c3ccccc23)NC(=O)[C@@H](CC(C)C)NC(=O)[C@H](Cc2c[nH]c3ccccc23)NC1=O` [SEQ ID NO:27, cyclo-(D-Lys-His-D-Leu-Trp-D-Leu-Trp)] (cyclo(H[dL]W[dL]W[dK])), for which, in [1], the MRSA MIC was 10 µg/mL and the “S. aureus (MRSA) MIC” value is 10 µg/mL. For the same compound, the “MRSA (in vitro activity)” value in data set [1] (setting [15]) is recorded as 10. For the same compound, the “E. coli MIC” value in the data set on E. coli JM109(DE3) is 100 µg/mL. The “RBC Hemolysis (HD50)” value with murine red blood cells [2] worked out at 25. This compound registered a VRE MIC in [3] of 40 µg/mL. The “VRE (in vitro activity)” value in data set [3] (media a: AM-3) is given as 40. This compound also had a B. cerius MIC in [4] of 5 µg/mL. In data set [5], this compound came in with a S. pneum. MIC of 5 µg/mL. The “time to kill effectively all S. aureus (MRSA)” value in [13] was not above 60 min. Further, the “time to kill effectively all E. coli” value in the data set on E. coli JM109 (DE3) was not above 90 min.

Take “MELLITIN [linear peptide that is hemolytic against mammalian red blood cells, reference compound]”: the “MRSA (in vitro activity)” value in data set [1] (media b: cation adjusted Meuller Hinton broth (MHBII)) is 6.3. Also, the “RBC Hemolysis (HD50)” value with murine red blood cells [2] (Table 9) is listed as 10. Also, the “VRE (in vitro activity)” value in data set [3] (media c: Brain Heart Infusion (BHI)) is reported as 6.3. Also, the “hemolytic concentration against mammalian red blood cells in vitro” value in the data set with murine red blood cells [14] is listed as “about 10 μg/ml”.
